Data as given in ChEMBL document CHEMBL2163280 (J Med Chem, 2012).
Activity calls are given as the source filed them. The calls are words filed in the database; no cut-off is given here.

Tests used:
[1] = molecular target: Neuronal acetylcholine receptor; alpha3/beta4 (Rattus norvegicus) (UniProt P04757+P12392); experiment: Displacement of [3H]epibatidine from rat alpha3beta4 nACHR at 10 uM; assay type: protein-complex assay
[2] = molecular target: Neuronal acetylcholine receptor; alpha4/beta4 (Rattus norvegicus) (UniProt P09483+P12392); experiment: Displacement of [3H]epibatidine from rat alpha4beta4 nACHR at 10 uM; assay type: protein-complex assay
[3] = molecular target: Acetylcholine receptor; alpha1/beta1/delta/gamma (Homo sapiens) (UniProt P02708+P07510+P11230+Q07001); experiment: Agonist activity at alpha1betagammadelta nACHR in human TE671/RD cells by 86Rb+ efflux assay; assay type: functional, cell-based
[4] = test system: Neuronal acetylcholine receptor alpha2/beta2 rat; experiment: Displacement of [3H]epibatidine from rat alpha2beta2 nACHR at 10 uM
[5] = species: Rattus norvegicus; experiment: Displacement of [3H]epibatidine from rat forebrain alpha4beta2* nACHR at 10 uM
[6] = molecular target: Neuronal acetylcholine receptor; alpha2/beta4 (Rattus norvegicus) (UniProt P12389+P12392); experiment: Displacement of [3H]epibatidine from rat alpha2beta4 nACHR at 10 uM; assay type: protein-complex assay
[7] = molecular target: Neuronal acetylcholine receptor; alpha3/beta2 (Rattus norvegicus) (UniProt P04757+P12390); experiment: Displacement of [3H]epibatidine from rat alpha3beta2 nACHR at 10 uM; assay type: protein-complex assay
[8] = molecular target: Neuronal acetylcholine receptor; alpha4/beta2 (Rattus norvegicus) (UniProt P09483+P12390); experiment: Displacement of [3H]epibatidine from rat alpha4beta2 nACHR at 10 uM; assay type: protein-complex assay
[9] = molecular target: Neuronal acetylcholine receptor; alpha4/beta2 (Rattus norvegicus, UniProt P09483+P12390); experiment: Displacement of [3H]epibatidine from rat alpha4beta2 nACHR; assay type: protein-complex assay
Chain of Neuronal acetylcholine receptor; alpha4/beta2 (P09483 whole entry): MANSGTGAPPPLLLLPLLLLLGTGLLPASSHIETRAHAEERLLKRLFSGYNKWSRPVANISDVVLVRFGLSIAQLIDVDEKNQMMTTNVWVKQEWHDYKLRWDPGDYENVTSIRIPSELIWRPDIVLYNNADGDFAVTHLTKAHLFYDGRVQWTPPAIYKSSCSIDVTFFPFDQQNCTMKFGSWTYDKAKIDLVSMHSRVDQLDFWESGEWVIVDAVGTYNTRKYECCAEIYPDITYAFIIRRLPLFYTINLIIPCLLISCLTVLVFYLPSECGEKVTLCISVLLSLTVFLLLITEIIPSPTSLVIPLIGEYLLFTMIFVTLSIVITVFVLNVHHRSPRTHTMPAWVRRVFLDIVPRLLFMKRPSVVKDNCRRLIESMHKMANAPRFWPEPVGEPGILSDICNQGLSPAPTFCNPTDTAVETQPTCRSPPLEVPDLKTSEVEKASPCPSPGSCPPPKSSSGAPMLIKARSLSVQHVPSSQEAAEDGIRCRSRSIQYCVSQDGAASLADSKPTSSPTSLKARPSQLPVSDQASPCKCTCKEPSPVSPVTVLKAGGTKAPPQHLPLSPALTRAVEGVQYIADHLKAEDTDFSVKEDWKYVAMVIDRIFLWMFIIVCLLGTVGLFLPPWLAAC
Chain of Neuronal acetylcholine receptor; alpha4/beta2 (P12390 whole entry): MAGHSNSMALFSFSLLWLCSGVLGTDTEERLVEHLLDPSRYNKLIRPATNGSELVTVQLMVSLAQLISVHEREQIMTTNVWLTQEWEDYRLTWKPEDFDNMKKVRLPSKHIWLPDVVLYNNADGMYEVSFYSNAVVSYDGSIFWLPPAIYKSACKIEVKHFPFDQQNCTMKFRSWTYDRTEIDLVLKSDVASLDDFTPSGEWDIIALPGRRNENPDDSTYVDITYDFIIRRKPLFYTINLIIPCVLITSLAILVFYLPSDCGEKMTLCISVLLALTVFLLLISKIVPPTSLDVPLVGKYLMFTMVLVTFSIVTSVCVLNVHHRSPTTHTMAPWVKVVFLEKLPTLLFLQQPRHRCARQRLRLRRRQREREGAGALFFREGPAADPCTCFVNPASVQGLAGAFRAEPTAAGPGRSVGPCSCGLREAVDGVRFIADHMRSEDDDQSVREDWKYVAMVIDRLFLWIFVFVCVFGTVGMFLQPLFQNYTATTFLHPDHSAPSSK

With `c1c(OC[C@@H]2CCN2)noc1COCC1CC1` the Activity [1] was under 50%, the Activity [2] was under 50% and the Activity [3] was “inactive”. It also gave an Activity [4] of under 50%, an Activity [5] of under 50% and an Activity [6] of under 50%. It also gave an Activity [7] of under 50% and an Activity [8] of under 50%.

In the case of `Cc1cc([C@@H]2CCCN2C)on1` [ABT-418], the Ki [9] is reported as 7.4 nM.

With `CCNC(=O)OCc1cc(OC[C@@H]2CCN2)on1` the Activity [3] was “inactive”.

`Fc1ccc(NCc2cc(OC[C@@H]3CCN3)on2)cc1` was tested, and the Activity [3] was “inactive”.

`FCc1cc(OC[C@@H]2CCN2)on1` was tested, and the Activity [3] was “inactive”.

For `c1ccc(OCc2cc(OC[C@@H]3CCCN3)on2)cc1`, the Activity [3] was “inactive”.
